Measured values: ChEMBL document CHEMBL5649166, “RIP3 induces apoptosis independent of pronecrotic kinase activity” (Mol Cell, 2014)
Active and inactive are the calls of the source. No cut-off for these calls is given here.

Columns and labels:
[1] = biological target: Insulin receptor (Homo sapiens) (UniProt P06213); assay: Inhibition of human IR using poly[Glu:Tyr] (4:1) as substrate at 1 uM in presence of 32P-ATP by Hotspot assay relative to control; values are per cent of control
[2] = biological target: T1, Dual specificity tyrosine-phosphorylation-regulated kinase 2 (Homo sapiens) (UniProt Q92630); assay: Inhibition of human DYRK2 using RRRFRPASPLRGPPK as substrate at 1 uM in presence of 32P-ATP by Hotspot assay relative to control; values are per cent of control
T1 sequence (whole entry): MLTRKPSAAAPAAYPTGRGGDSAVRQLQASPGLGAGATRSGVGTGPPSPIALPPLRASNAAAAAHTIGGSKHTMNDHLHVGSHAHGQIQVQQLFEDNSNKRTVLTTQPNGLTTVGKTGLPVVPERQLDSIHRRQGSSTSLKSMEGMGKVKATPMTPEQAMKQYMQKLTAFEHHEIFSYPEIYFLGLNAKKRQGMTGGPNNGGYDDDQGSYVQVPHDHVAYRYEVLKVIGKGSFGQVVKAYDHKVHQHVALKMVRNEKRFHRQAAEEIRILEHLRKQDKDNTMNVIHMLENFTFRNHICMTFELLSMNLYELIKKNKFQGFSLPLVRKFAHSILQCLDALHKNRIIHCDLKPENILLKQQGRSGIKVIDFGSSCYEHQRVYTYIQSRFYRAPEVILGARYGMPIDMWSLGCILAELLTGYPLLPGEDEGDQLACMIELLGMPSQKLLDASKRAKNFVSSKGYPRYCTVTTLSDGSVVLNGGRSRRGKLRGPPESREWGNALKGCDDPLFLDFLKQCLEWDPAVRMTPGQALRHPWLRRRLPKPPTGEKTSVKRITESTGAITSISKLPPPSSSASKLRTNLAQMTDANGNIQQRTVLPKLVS

[3] = biological target: Homeodomain-interacting protein kinase 3 (Homo sapiens) (UniProt Q9H422); assay: Inhibition of human HIPK3 using myelin basic protein as substrate at 1 uM in presence of 32P-ATP by Hotspot assay relative to control; values are per cent of control
[4] = biological target: Calcium/calmodulin-dependent protein kinase kinase 2 (Homo sapiens) (UniProt Q96RR4); assay: Inhibition of human CAMKK2 using myelin basic protein as substrate at 1 uM in presence of 32P-ATP by Hotspot assay relative to control; values are per cent of control
Calcium/calmodulin-dependent protein kinase kinase 2 (Homo sapiens), sequence (Q96RR4 2-588 limits assumed): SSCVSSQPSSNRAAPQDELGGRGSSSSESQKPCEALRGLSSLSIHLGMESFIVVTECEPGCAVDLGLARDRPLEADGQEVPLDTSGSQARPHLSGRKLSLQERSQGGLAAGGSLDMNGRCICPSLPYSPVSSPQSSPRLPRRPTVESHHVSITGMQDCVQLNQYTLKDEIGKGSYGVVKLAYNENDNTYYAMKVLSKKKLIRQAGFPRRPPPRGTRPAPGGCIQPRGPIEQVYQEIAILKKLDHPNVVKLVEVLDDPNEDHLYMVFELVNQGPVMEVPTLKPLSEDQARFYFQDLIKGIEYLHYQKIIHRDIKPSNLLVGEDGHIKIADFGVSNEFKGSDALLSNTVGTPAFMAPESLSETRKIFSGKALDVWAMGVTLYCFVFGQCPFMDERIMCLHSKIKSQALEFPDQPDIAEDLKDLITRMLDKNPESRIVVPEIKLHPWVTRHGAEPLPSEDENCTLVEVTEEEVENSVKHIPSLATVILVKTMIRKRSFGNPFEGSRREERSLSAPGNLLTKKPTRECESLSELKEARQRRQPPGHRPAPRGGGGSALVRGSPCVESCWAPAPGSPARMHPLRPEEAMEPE

[5] = test system: NIH3T3; assay: Inhibition of TNF-alpha induced necroptosis in mouse 3T3SA cells assessed as increase in cell viability at 0.04 to 1 uM incubated for 18 hrs in presence of zVAD by Cell Titer-Glo luminescent cell viability assay; assay type: functional, cell-based; conditions: dose 0.04-1 µM
[6] = biological target: T2, Serine/threonine-protein kinase 17A (Homo sapiens) (UniProt Q9UEE5); assay: Inhibition of human DRAK1/STK17A using KKLNRTLSFAEPG as substrate at 1 uM in presence of 32P-ATP by Hotspot assay relative to control; values are per cent of control
T2 sequence (whole entry): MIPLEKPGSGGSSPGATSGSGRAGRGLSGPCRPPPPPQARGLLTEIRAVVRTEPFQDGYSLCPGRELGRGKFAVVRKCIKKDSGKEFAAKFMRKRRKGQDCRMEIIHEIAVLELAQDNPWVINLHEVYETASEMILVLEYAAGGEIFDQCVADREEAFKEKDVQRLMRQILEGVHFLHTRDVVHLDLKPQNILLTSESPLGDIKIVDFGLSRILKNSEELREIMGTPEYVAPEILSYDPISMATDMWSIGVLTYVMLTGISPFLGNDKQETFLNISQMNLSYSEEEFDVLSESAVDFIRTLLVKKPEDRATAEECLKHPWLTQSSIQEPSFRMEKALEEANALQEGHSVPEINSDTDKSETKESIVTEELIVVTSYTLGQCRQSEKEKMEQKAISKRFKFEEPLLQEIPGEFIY

[7] = biological target: Macrophage colony-stimulating factor 1 receptor (Homo sapiens) (UniProt P07333); assay: Inhibition of human FMS using poly[Glu:Tyr] (4:1) as substrate at 1 uM in presence of 32P-ATP by Hotspot assay relative to control; values are per cent of control
Macrophage colony-stimulating factor 1 receptor (Homo sapiens), sequence (P07333 whole entry): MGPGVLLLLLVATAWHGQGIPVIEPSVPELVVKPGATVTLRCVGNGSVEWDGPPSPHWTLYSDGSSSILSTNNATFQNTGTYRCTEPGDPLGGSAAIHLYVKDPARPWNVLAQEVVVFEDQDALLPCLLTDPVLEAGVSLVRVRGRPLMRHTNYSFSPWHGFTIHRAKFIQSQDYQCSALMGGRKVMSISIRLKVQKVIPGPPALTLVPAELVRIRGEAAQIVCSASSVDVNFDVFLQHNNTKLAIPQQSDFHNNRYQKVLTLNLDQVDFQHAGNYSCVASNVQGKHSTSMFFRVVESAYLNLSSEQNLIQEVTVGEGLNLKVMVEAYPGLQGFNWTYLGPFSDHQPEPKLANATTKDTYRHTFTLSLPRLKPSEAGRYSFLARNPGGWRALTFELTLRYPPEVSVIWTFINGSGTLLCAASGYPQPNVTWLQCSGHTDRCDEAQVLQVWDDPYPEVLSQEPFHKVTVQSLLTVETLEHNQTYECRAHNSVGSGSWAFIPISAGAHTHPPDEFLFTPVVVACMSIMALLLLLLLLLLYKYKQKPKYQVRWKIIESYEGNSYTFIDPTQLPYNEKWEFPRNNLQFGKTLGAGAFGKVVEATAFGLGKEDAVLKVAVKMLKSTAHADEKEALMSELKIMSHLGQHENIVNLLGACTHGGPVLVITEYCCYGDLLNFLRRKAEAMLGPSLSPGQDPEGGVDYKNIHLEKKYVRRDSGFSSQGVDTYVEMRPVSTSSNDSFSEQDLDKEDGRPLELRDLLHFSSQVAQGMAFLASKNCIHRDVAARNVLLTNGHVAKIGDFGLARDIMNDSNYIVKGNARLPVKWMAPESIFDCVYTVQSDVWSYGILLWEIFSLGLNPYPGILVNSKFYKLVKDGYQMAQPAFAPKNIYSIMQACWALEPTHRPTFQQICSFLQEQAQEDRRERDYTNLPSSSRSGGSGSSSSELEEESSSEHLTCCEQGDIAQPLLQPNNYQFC

[8] = biological target: T3, Protein kinase C zeta type (Homo sapiens) (UniProt Q05513); assay: Inhibition of human PKCzeta using ERMRPRKRQGSVRRRV as substrate at 1 uM in presence of 32P-ATP by Hotspot assay relative to control; values are per cent of control
T3 sequence (whole entry): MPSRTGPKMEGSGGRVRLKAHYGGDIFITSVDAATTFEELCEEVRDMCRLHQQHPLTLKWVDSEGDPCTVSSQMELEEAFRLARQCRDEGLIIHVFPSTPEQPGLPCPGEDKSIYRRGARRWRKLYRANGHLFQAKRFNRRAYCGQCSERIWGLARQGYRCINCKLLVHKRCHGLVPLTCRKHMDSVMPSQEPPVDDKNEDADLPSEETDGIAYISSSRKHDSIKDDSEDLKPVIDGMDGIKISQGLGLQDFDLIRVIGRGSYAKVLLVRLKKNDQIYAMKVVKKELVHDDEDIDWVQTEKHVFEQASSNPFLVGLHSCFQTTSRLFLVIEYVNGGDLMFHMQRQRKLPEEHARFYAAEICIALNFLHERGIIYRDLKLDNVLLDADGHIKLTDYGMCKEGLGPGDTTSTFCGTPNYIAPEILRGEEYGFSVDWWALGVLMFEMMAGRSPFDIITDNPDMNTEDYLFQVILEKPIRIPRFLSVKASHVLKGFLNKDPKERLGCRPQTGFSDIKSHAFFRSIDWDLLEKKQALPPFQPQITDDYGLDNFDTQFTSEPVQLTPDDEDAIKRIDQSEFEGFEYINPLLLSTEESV

[9] = biological target: RAC-alpha serine/threonine-protein kinase (Homo sapiens) (UniProt P31749); assay: Inhibition of human AKT1 using KGSGSGRPRTSSFAEG as substrate at 1 uM in presence of 32P-ATP by Hotspot assay relative to control; values are per cent of control
RAC-alpha serine/threonine-protein kinase (Homo sapiens), sequence (P31749 whole entry, canonical isoform): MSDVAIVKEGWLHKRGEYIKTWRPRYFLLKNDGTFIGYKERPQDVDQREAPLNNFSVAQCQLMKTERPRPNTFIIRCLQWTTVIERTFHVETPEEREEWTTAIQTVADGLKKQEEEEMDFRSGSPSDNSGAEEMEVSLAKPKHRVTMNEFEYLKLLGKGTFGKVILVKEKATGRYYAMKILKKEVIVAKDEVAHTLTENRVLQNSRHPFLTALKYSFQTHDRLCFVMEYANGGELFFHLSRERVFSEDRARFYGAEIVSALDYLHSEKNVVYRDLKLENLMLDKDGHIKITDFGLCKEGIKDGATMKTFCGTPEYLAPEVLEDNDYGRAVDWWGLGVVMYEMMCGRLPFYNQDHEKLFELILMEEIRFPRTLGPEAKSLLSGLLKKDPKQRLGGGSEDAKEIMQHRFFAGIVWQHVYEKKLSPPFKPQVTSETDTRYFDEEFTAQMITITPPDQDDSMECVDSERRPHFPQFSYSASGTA

[10] = biological target: Casein kinase I isoform alpha (Homo sapiens) (UniProt P48729); assay: Inhibition of human CK1a1 using KRRRAL[pS]VASLPGL as substrate at 1 uM in presence of 32P-ATP by Hotspot assay relative to control; values are per cent of control
Casein kinase I isoform alpha (Homo sapiens), sequence (P48729 2-337 limits assumed): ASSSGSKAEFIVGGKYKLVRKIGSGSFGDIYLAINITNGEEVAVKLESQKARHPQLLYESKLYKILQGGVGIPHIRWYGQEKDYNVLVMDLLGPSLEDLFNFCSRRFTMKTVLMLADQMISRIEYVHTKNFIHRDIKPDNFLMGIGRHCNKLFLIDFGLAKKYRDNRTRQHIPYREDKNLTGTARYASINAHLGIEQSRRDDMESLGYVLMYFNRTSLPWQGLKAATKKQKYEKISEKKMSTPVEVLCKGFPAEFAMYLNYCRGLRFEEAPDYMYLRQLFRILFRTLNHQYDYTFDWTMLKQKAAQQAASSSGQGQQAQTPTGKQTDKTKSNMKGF

[11] = biological target: Serine/threonine-protein kinase Chk2 (Homo sapiens) (UniProt O96017); assay: Inhibition of human CHK2 using KKKVSRSGLYRSPSMPENLNRPR as substrate at 1 uM in presence of 32P-ATP by Hotspot assay relative to control; values are per cent of control
Serine/threonine-protein kinase Chk2 (Homo sapiens), sequence (O96017 whole entry): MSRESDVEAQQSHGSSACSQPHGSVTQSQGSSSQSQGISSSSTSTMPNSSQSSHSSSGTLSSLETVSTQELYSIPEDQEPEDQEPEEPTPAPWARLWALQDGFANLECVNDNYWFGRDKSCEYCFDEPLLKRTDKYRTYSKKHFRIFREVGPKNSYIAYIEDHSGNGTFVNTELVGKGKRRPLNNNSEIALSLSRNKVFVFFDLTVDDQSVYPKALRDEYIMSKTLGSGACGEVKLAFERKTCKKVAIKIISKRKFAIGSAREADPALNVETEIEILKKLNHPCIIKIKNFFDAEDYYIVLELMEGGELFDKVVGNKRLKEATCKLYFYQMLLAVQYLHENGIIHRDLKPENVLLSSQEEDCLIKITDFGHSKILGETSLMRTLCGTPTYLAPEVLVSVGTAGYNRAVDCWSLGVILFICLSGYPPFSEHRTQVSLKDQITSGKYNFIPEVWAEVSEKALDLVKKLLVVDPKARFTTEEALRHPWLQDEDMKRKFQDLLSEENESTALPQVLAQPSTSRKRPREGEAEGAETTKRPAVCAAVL

Insulin receptor (Homo sapiens), sequence (P06213 28-758 limits assumed): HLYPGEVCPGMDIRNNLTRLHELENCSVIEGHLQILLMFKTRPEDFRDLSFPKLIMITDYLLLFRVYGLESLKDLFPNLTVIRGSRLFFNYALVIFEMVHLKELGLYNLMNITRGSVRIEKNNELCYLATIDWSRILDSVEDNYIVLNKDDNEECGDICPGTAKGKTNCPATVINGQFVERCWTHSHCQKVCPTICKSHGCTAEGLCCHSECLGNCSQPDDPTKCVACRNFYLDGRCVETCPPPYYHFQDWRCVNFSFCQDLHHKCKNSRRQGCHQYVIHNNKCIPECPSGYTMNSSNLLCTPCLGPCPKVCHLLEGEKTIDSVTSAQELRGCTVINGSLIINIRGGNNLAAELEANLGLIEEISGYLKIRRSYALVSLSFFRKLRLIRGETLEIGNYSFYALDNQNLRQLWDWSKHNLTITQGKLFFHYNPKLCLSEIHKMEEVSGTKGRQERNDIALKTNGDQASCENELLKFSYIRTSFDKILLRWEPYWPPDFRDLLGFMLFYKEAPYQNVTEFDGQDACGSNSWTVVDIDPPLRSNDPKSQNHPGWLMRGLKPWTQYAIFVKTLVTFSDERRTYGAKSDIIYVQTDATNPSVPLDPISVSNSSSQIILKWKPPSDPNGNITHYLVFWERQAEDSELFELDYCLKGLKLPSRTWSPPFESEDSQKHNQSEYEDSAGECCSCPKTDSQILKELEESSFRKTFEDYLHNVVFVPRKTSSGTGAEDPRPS
Insulin receptor (Homo sapiens), sequence (P06213 763-1382 limits assumed): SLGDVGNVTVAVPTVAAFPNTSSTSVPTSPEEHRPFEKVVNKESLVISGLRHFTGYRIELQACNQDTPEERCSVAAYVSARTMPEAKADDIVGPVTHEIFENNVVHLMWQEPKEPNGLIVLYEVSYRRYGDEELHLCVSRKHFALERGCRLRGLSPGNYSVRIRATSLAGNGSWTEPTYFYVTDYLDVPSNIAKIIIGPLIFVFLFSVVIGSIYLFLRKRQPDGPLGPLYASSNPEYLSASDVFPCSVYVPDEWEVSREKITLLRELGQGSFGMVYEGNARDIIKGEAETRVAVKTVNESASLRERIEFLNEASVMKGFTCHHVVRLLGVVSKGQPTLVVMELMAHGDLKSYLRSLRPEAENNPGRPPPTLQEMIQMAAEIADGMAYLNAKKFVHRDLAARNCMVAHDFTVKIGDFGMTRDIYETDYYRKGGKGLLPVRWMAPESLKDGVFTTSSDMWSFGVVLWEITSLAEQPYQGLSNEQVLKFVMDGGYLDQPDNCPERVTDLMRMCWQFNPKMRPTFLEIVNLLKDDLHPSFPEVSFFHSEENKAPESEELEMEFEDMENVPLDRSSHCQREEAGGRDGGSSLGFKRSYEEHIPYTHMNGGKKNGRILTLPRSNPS

| SMILES | residual activity [1] [%] | residual activity [2] [%] | residual activity [3] [%] | residual activity [4] [%] | inhibition [5] | residual activity [6] [%] | residual activity [7] [%] | residual activity [8] [%] | residual activity [9] [%] | residual activity [10] [%] | residual activity [11] [%] |
| --- | --- | --- | --- | --- | --- | --- | --- | --- | --- | --- | --- |
| CC(C)S(=O)(=O)c1ccc2nccc(Nc3ccc4scnc4c3)c2c1 | 90.4 | 101 | 104 | 92.3 | Active | 99 | 108 | 96.3 | 97.6 | 105 | 89.6 |
| Cc1cc(-c2cnc(N)c3c(-c4ccc5scnc5c4)csc23)n(C)n1 | 101 | 78.5 | 101 | 87.7 | Active | 96.8 | 19.4 | 101 | 98.9 | 88.4 | 97.3 |
| CNC(=O)c1ccc2c(c1)ncn2-c1ccc(CC(=O)OC(C)(C)C)cc1 | 90 | 96.1 | 102 | 87.7 | inactive | 98.9 | 91.8 | 96.4 | 91.3 | 98.5 | 94 |
